Results as given in patent publication US9359445B2, “Compositions and methods for treating neurological disorders” (The J. David Gladstone Institutes, priority 2010, dated 2016).
“Also recorded” adds a separate entry of the source.

Assays:
Venus-PKD1 = Venus-PKD1 translocation to dendritic puncta (puncta index) in transfected neurons; assay type: cell-based, mouse; conditions: for Venus-PKD1 translocation / puncta formation induced by the substance: substance applied alone, glutamate 30 μM, ACPD 500 μM, K+ 55 mM in the presence of APV; for effect on glutamate-induced Venus-PKD1 puncta formation: drug applied with glutamate
pH-GluR2 = assay: pHluorin GluR2 recycling assay in mouse cortical neurons; assay type: cell-based
Excerpt: Rat GluR2 tagged with superecliptic pHluorin was cloned into pGW1 mammalian expression vector. mCherry was subcloned to replace enhanced green fluorescent protein (EGFP) in FUGW PKD1 shRNA and control vectors. mCherry served as a morphology marker to monitor the overall health of the cell. pHluorin-GluR2 and PKD1 shRNA or mutant control were transfected into mouse cortical neurons with Lipofectamine 2000 (Invitrogen). At 12 DIV, neurons were imaged on a Zeiss LSM 510 confocal microscope with a 40× water immersion lens in HBS as described above, only nimodipine was excluded. After 20 min of baseline imaging, 30 μM glutamate and 10 μM glycine were washed on to cells by gravity flow perfusion for 5 min, followed by washout with control HBS solution. Images were collected every 5 min. Average pixel intensity of pH-GluR2 in the cell body was calculated in MetaMorph, and background was measured in a cell-free region of the image and subtracted from fluorescence intensities before further calculations. Fractional change in fluorescent intensity (ΔF/F0) was calculated as Ft−F0/F0, where Ft is pHGluR2 intensity at time t and F0 is the average pH-GluR2 fluorescence intensity at four points before glutamate application.

PKD1 = PKD1 phosphorylation (activation) in stimulated mouse cortical neurons, western blot; assay type: cell-based; conditions: for PKD1 phosphorylation at activation loop (S744/8) and autophosphorylation (S916) sites after stimulation: mouse cortical cultures, substance applied alone, 10 min; for effect on glutamate-induced PKD1 phosphorylation: antagonist applied with glutamate

Molecule | PKD1 phosphorylation at activation loop (S744/8) and autophosphorylation (S916) sites after stimulation (PKD1; glutamate 30 μM) | effect on glutamate-induced Venus-PKD1 puncta formation (Venus-PKD1) | further results
glutamate | rapidly and robustly phosphorylated |  | Venus-PKD1 translocation / puncta formation induced by the substance (Venus-PKD1): translocated to discrete puncta throughout the dendrites; pH-GluR2 fluorescence intensity (pH-GluR2; after 5 minutes of glutamate application): ~80 % of baseline; pH-GluR2 fluorescence recovery (pH-GluR2; fifty-five minutes after glutamate stimulation, neurons with endogenous PKD1): > 90 % of baseline; pH-GluR2 fluorescence intensity at maximal endocytosis (pH-GluR2; immediately after glutamate stimulation): 20 % of baseline; duration of glutamate-induced PKD1 phosphorylation (PKD1; glutamate 30 μM, time of stimulation): up to 60 min
COc1ccc2c(c1)c(C1=C(c3c[nH]c4ccccc34)C(=O)NC1=O)cn2CCCN(C)C [Gö6983] |  | did not prevent PKD1 translocation; also recorded: had no effect | 
N[C@H](C(=O)O)c1cc(O)cc(O)c1 [DHPG, (S)-3,5-dihydroxyphenylglycine] | induced phosphorylation |  | 
CN(C)CCCn1cc(C2=C(c3c[nH]c4ccccc34)C(=O)NC2=O)c2ccccc21 [GF109203X] |  | had no effect | effect on glutamate-induced Venus-PKD1 puncta formation (Venus-PKD1; listed as GF 109203×): did not prevent PKD1 translocation
Cn1c2ccccc2c2c3c(c4c5ccccc5n(CCC#N)c4c21)CNC3=O [Gö6976] |  | had no effect | 
COc1ccc2c(c1)CC[C@@H]1[C@@H]2CC[C@]2(C)[C@@H](NCCCCCCN3C(=O)C=CC3=O)CC[C@@H]12 [U73122] |  | blocked glutamate-induced puncta formation; also recorded: blocks puncta formation | 
N[C@@]1(C(=O)O)CC[C@@H](C(=O)O)C1 [ACPD, (1S,3R)-1-aminocyclopentane-1,3-dicarboxylic acid] | induced phosphorylation |  | Venus-PKD1 translocation / puncta formation induced by the substance (Venus-PKD1): did not induce translocation
NC(CCCP(=O)(O)O)C(=O)O (racemic) [APV, D,L-2-amino-5-phosphonovaleric acid] |  | blocked | effect on glutamate-induced PKD1 phosphorylation (PKD1): did not block phosphorylation
CC(N)(C(=O)O)c1ccc(C(=O)O)cc1 (stereo not drawn) [MCPG, alpha-methyl-4-carboxyphenylglycine] |  | unaffected | effect on glutamate-induced PKD1 phosphorylation (PKD1): reduced glutamate-induced PKD1 phosphorylation
CN[C@H](CC(=O)O)C(=O)O [NMDA, N-methyl-D-aspartate] | did not stimulate autophosphorylation |  | Venus-PKD1 translocation / puncta formation induced by the substance (Venus-PKD1): puncta formation was induced
BDNF: brain-derived neurotophic factor, activates TrkB receptors (protein, UniProt P23560 19-247, looked up) Neurotrophic factor BDNF …: APMKEANIRGQGGLAYPGVRTHGTLESVNGPKAGSRGLTSLADTFEHVIEELLDEDQKVRPNEENNKDADLYTSRVMLSSQVPLEPPLLFLLEEYKNYLDAANMSMRVRRHSDPARRGELSVCDSISEWVTAADKKTAVDMSGGTVTVLEKVPVSKGQLKQYFYETKCNPMGYTKEGCRGIDKRHWNSQCRTTQSYVRALTMDSKKRIGWRFIRIDTSCVCTLTIKRGR | did not activate PKD1 |  | 
